Molecules are shown by their SMILES.

For this assay, the target named is T1, CDK11 (Inactive) (Homo sapiens, UniProt Q9BWU1).
T1 construct: purchased Thermo Fisher Scientific (Life Technologies) SelectScreen
As to the kind of experiment: SelectScreen LanthaScreen. Format: binding. As to conditions: 1 µM. Put shortly: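 Percent values come from Thermo SelectScreen profiling of NU5455, combining activity and binding assays. CSF1R was run in Z'LYTE format at Km app ATP, and CAMK1 in Adapta format with ATP listed at 10.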
For orientation: TR-FRET usually uses a lanthanide donor and a delayed reading to cut background.

T1 sequence (Q9BWU1 whole entry): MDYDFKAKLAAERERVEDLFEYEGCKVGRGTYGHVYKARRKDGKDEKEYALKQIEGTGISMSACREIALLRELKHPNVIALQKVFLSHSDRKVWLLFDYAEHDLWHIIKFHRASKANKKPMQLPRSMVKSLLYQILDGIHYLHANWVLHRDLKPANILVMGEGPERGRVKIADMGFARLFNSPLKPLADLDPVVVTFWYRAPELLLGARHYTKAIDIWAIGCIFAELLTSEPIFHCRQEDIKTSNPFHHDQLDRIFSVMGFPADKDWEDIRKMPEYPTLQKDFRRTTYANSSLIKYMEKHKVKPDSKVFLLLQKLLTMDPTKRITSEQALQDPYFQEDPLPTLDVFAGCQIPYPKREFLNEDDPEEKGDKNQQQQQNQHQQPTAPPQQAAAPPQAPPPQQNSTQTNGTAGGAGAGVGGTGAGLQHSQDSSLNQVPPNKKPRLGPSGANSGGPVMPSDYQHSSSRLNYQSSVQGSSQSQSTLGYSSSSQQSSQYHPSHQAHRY

As to `CN(C(=O)CN1CCOCC1)c1ccc2sc3c(-c4cccc5c(=O)cc(N6CC7CCC(C6)O7)oc45)cccc3c2c1` [NU5455], the “% displacement” value stood at 1.7%.

These data come from PMC6934184, “Selective DNA-PKcs inhibition extends the therapeutic index of localized radiotherapy and chemotherapy” (The Journal of Clinical Investigation, 2019).
